How the values were obtained:
Experiment in all cases: KinaseProfiler
Assay type in all cases: biochemical
Conditions in all cases: 10 μM, ATP near Km
PAK2 = target: T1, PAK2 (Homo sapiens, UniProt Q13177)
T1 construct: purchased Millipore, Inc. (KinaseProfiler service)
Procedure: (§1) A representative compound (Example 15) of the invention was tested for off-target kinase activity at a concentration of 10 μM by Millipore, Inc. in their KinaseProfiler™ service against all the kinases available in their full kinase panel. The compound was run in duplicate at a concentration of ATP near the Km for each individual kinase according to Millipore's specifications. The results are shown in Table B. Data are reported as percent of control (POC) and are the average of the two replicates.

CAMK2b = target: T2, CAMK2b (Homo sapiens, UniProt Q13554)
T2 construct: purchased Millipore (KinaseProfiler service)
Procedure: as §1

Pim-2 = target: T3, Pim-2 (Homo sapiens, UniProt Q9P1W9)
T3 construct: purchased Millipore, Inc. (KinaseProfiler service)
Procedure: as §1

TAO2 = target: T4, TAO2 (Homo sapiens, UniProt Q9UL54)
T4 construct: purchased Millipore, Inc. (KinaseProfiler service)
Procedure: as §1

DCAMKL2 = target: T5, DCAMKL2 (Homo sapiens, UniProt Q8N568)
T5 construct: purchased Millipore, Inc. (KinaseProfiler service)
Procedure: as §1

CDK9/cyclinT1 = target: T6, CDK9/cyclinT1 (Homo sapiens, UniProt P50750)
T6 construct: purchased Millipore, Inc. (KinaseProfiler service)
Procedure: as §1

ULK3 = target: T7, ULK3 (Homo sapiens, UniProt Q6PHR2)
T7 construct: purchased Millipore, Inc. (KinaseProfiler service)
Procedure: as §1

CLK2 = target: T8, CLK2 (Homo sapiens, UniProt P49760)
T8 construct: purchased Millipore, Inc. (KinaseProfiler service)
Procedure: as §1

LIMK1 = target: T9, LIMK1 (Homo sapiens, UniProt P53667)
T9 construct: purchased Millipore, Inc. (KinaseProfiler service)
Procedure: as §1

PhKgamma2 = target: T10, PhKgamma2 (Homo sapiens, UniProt P15735)
T10 construct: purchased Millipore, Inc. (KinaseProfiler service)
Procedure: as §1

MICK4_m = target: T11, MICK4_m (Mus musculus, UniProt P47809)
T11 construct: purchased Millipore, Inc. (KinaseProfiler service)
Procedure: as §1

WNK2 = target: T12, WNK2 (Homo sapiens, UniProt Q9Y3S1)
T12 construct: purchased Millipore, Inc. (KinaseProfiler service)
Procedure: as §1

CK1delta = target: T13, CK1delta (Homo sapiens, UniProt P48730)
T13 construct: purchased Millipore, Inc. (KinaseProfiler service)
Procedure: as §1

PTK5 = target: T14, PTK5 (Homo sapiens, UniProt P42685)
T14 construct: purchased Millipore, Inc. (KinaseProfiler service)
Procedure: as §1

WNK3 = target: T15, WNK3 (Homo sapiens, UniProt Q9BYP7)
T15 construct: purchased Millipore, Inc. (KinaseProfiler service)
Procedure: as §1

JNKlalpha1 = target: T16, JNKlalpha1 (Homo sapiens, UniProt P45983)
T16 construct: purchased Millipore, Inc. (KinaseProfiler service)
Procedure: as §1

Plk1 = target: T17, Plk1 (Homo sapiens, UniProt P53350)
T17 construct: purchased Millipore, Inc. (KinaseProfiler service)
Procedure: as §1

p38delta = target: T18, p38delta (Homo sapiens, UniProt O15264)
T18 construct: purchased Millipore, Inc. (KinaseProfiler service)
Procedure: as §1

JNK2alpha2 = target: T19, JNK2alpha2 (Homo sapiens, UniProt P45984)
T19 construct: purchased Millipore, Inc. (KinaseProfiler service)
Procedure: as §1

NEK6 = target: T20, NEK6 (Homo sapiens, UniProt Q9HC98)
T20 construct: purchased Millipore, Inc. (KinaseProfiler service)
Procedure: as §1

p70S6K = target: T21, p70S6K (Homo sapiens, UniProt P23443)
T21 construct: purchased Millipore, Inc. (KinaseProfiler service)
Procedure: as §1

Yes = target: T22, Yes (Homo sapiens, UniProt P07947)
T22 construct: purchased Millipore, Inc. (KinaseProfiler service)
Procedure: as §1

MRCKalpha = target: T23, MRCKalpha (Homo sapiens, UniProt Q5VT25)
T23 construct: purchased Millipore, Inc. (KinaseProfiler service)
Procedure: as §1

HIPK2 = target: T24, HIPK2 (Homo sapiens, UniProt Q9H2X6)
T24 construct: purchased Millipore, Inc. (KinaseProfiler service)
Procedure: as §1

Ret = target: T25, Ret (Homo sapiens, UniProt P07949)
T25 construct: purchased Millipore, Inc. (KinaseProfiler service)
Procedure: as §1

mTOR = target: T26, mTOR (Homo sapiens, UniProt P42345)
T26 construct: purchased Millipore, Inc. (KinaseProfiler service)
Procedure: as §1

MAP4K2 = target: T27, MAP4K2 (Homo sapiens, UniProt Q12851)
T27 construct: purchased Millipore, Inc. (KinaseProfiler service)
Procedure: as §1

EGFR = target: T28, EGFR (Homo sapiens, UniProt P00533)
T28 construct: purchased Millipore, Inc. (KinaseProfiler service)
Procedure: as §1

TNK2 = target: T29, TNK2 (Homo sapiens, UniProt Q07912)
T29 construct: purchased Millipore, Inc. (KinaseProfiler service)
Procedure: as §1

Fgr = target: T30, Fgr (Homo sapiens, UniProt P09769)
T30 construct: purchased Millipore, Inc. (KinaseProfiler service)
Procedure: as §1

Lck = target: T31, Lck (Homo sapiens, UniProt P06239)
T31 construct: purchased Millipore, Inc. (KinaseProfiler service)
Procedure: as §1

Ron = target: T32, Ron (Homo sapiens, UniProt Q04912)
T32 construct: purchased Millipore, Inc. (KinaseProfiler service)
Procedure: as §1

CDK1/cyclinB = target: T33, CDK1/cyclinB (Homo sapiens, UniProt P06493)
T33 construct: purchased Millipore (KinaseProfiler service)
Procedure: as §1

AURKA = target: T34, AURKA (Homo sapiens, UniProt O14965)
T34 construct: purchased Millipore (KinaseProfiler service)
Procedure: as §1

MARK1 = target: T35, MARK1 (Homo sapiens, UniProt Q9P0L2)
T35 construct: purchased Millipore, Inc. (KinaseProfiler service)
Procedure: as §1

MELK = target: T36, MELK (Homo sapiens, UniProt Q14680)
T36 construct: purchased Millipore, Inc. (KinaseProfiler service)
Procedure: as §1

DDR2 = target: T37, DDR2 (Homo sapiens, UniProt Q16832)
T37 construct: purchased Millipore, Inc. (KinaseProfiler service)
Procedure: as §1

TBK1 = target: T38, TBK1 (Homo sapiens, UniProt Q9UHD2)
T38 construct: purchased Millipore, Inc. (KinaseProfiler service)
Procedure: as §1

DAPK3 = target: T39, DAPK3 (Homo sapiens, UniProt O43293)
T39 construct: purchased Millipore, Inc. (KinaseProfiler service)
Procedure: as §1

ROCK-II = target: T40, ROCK-II (Homo sapiens, UniProt O75116)
T40 construct: purchased Millipore, Inc. (KinaseProfiler service)
Procedure: as §1

CK1gamma2 = target: T41, CK1gamma2 (Homo sapiens, UniProt P78368)
T41 construct: purchased Millipore, Inc. (KinaseProfiler service)
Procedure: as §1

T16 sequence (P45983 1-384 isoform P45983-2): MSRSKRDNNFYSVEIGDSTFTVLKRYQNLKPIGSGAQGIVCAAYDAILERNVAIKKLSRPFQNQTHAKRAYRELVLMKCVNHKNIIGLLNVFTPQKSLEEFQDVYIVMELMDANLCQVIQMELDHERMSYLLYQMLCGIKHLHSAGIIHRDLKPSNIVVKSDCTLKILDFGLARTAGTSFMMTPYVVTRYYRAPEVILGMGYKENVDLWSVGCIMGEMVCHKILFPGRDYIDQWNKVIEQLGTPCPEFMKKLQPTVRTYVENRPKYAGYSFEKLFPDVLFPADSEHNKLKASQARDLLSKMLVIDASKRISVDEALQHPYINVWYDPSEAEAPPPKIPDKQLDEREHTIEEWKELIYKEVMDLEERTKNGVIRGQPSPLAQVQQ
T17 sequence (P53350 whole entry): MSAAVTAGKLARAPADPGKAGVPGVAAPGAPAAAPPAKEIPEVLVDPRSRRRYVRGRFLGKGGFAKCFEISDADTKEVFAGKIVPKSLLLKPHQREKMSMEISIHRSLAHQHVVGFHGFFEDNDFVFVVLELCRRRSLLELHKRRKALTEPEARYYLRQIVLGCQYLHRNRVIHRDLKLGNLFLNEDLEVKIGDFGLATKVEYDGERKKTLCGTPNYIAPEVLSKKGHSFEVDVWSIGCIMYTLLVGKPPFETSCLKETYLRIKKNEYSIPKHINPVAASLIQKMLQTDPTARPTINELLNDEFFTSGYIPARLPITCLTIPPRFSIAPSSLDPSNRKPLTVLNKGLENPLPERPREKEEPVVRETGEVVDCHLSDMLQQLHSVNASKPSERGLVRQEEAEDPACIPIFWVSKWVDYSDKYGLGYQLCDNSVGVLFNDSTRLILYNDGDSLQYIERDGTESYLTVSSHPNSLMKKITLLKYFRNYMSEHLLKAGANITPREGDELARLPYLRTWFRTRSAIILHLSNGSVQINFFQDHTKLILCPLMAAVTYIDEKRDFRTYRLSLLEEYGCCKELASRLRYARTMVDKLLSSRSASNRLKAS
T2 sequence (Q13554 whole entry): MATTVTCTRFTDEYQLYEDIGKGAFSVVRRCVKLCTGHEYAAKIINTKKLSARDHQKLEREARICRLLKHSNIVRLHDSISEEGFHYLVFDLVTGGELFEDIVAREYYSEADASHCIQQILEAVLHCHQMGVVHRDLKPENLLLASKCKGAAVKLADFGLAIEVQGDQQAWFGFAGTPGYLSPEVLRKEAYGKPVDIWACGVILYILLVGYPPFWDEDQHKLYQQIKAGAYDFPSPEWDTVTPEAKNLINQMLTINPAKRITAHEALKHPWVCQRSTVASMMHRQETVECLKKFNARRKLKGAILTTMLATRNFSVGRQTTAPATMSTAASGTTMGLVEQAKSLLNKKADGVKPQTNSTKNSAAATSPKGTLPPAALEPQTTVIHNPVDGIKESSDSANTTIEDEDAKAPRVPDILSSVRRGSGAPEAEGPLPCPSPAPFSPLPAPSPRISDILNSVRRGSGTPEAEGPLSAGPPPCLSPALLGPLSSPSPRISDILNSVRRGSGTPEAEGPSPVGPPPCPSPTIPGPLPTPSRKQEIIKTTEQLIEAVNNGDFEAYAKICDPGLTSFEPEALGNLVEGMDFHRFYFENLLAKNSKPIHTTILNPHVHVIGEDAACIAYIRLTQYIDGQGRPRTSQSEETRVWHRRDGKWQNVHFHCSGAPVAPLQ
T8 sequence (P49760 whole entry): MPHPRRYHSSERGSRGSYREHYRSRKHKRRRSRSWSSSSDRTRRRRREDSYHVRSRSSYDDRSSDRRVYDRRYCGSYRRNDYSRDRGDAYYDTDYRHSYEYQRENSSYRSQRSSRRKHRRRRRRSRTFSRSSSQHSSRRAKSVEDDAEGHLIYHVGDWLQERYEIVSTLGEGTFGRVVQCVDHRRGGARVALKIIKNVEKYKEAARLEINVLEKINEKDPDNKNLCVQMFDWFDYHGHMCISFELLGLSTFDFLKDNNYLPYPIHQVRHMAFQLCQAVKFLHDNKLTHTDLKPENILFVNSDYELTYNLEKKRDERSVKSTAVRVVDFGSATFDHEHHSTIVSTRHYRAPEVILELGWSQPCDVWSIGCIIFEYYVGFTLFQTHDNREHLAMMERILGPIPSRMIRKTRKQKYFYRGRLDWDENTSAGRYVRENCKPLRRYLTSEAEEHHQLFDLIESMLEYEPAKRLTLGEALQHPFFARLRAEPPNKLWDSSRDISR
T19 sequence (P45984 whole entry): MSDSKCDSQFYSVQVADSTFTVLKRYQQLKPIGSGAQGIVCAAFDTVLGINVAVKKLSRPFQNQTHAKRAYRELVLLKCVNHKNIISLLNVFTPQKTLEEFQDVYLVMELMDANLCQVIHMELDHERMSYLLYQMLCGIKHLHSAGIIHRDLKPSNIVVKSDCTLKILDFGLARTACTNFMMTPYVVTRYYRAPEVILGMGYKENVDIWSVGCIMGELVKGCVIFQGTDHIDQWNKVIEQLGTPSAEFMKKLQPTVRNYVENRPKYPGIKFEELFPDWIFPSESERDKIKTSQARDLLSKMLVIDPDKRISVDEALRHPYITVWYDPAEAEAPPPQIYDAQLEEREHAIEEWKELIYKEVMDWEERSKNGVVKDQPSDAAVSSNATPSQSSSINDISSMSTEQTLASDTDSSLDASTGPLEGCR
T33 sequence (P06493 whole entry): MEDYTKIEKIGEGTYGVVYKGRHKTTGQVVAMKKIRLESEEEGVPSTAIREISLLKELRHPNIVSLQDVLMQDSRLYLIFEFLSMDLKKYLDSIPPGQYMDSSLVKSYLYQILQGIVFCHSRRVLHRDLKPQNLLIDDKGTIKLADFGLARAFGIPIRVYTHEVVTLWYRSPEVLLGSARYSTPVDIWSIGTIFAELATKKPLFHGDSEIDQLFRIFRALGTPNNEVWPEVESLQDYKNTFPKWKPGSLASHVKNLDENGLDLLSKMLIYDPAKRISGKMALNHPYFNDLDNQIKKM
T33 sequence (P14635 whole entry partner): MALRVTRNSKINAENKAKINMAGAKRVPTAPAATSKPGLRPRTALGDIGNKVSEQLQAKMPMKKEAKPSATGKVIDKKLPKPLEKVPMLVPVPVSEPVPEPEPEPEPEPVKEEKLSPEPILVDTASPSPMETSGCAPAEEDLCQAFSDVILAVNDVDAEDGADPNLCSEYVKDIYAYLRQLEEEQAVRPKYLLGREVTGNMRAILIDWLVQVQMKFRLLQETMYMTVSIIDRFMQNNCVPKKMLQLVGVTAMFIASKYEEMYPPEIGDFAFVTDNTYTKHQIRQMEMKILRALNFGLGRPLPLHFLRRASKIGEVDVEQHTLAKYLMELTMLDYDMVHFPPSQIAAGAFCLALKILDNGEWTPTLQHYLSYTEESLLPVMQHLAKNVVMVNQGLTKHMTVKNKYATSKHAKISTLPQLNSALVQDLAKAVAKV
T24 sequence (Q9H2X6 whole entry): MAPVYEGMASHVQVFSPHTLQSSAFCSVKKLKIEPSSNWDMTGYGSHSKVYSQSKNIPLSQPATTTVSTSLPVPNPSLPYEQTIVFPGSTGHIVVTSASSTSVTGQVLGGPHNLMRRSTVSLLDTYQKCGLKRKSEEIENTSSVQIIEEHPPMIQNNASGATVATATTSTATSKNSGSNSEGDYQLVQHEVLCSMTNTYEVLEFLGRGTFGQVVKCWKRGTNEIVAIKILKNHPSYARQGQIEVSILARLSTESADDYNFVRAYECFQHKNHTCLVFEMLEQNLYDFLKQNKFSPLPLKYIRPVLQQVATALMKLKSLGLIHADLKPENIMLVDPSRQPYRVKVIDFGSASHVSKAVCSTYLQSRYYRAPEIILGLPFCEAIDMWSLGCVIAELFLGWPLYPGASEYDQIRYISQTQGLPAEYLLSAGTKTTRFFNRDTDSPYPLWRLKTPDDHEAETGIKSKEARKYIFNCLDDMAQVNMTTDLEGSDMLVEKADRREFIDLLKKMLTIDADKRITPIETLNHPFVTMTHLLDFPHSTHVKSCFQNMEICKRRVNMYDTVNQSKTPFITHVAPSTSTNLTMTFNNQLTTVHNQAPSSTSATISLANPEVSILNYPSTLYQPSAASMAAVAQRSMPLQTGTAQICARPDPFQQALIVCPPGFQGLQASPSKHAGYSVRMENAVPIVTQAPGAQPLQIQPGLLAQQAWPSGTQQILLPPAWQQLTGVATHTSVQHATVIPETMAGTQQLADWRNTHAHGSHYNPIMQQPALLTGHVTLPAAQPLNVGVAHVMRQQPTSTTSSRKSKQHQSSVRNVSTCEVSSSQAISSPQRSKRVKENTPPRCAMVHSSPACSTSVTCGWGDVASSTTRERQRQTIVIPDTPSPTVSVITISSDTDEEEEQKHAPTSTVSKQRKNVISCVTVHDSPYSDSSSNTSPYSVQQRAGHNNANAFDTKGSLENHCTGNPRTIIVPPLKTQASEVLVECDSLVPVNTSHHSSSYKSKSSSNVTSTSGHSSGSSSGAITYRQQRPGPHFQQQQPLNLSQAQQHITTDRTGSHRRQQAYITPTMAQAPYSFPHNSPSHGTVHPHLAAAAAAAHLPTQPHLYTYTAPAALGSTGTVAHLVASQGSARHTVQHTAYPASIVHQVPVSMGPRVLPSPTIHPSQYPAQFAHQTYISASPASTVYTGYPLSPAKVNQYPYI
T18 sequence (O15264 whole entry): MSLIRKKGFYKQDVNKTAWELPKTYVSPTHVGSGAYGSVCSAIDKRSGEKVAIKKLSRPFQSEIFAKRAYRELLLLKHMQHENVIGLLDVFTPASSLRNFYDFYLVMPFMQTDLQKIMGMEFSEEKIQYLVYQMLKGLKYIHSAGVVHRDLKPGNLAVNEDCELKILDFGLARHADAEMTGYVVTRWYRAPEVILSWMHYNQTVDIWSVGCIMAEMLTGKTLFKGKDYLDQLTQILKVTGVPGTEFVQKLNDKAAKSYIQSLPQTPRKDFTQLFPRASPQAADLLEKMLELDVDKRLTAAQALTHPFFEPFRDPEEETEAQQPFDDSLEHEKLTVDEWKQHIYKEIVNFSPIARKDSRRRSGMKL

Avg POC (PAK2): 101.5 POC | Avg POC (CAMK2b): 101.5 POC | Avg POC (Pim-2): 142.5 POC | Avg POC (TAO2): 126 POC | Avg POC (DCAMKL2): 136 POC | Avg POC (CDK9/cyclinT1): 112.5 POC | Avg POC (ULK3): 92.5 POC | Avg POC (CLK2): 111.5 POC | Avg POC (LIMK1): 93.5 POC | Avg POC (PhKgamma2): 110.5 POC | Avg POC (MICK4_m): 137.5 POC | Avg POC (WNK2): 122.5 POC | Avg POC (CK1delta): 111.5 POC | Avg POC (PTK5): 102.5 POC | Avg POC (WNK3): 108.5 POC | Avg POC (JNKlalpha1): 107 POC | Avg POC (Plk1): 89.5 POC | Avg POC (p38delta): 100.5 POC | Avg POC (JNK2alpha2): 92 POC | Avg POC (NEK6): 111.5 POC | Avg POC (p70S6K): 130.5 POC | Avg POC (Yes): 120.5 POC | Avg POC (MRCKalpha): 137 POC | Avg POC (HIPK2): 99.5 POC | Avg POC (Ret): 91.5 POC | Avg POC (mTOR): 102.5 POC | Avg POC (MAP4K2): 112.5 POC | Avg POC (EGFR): 103 POC | Avg POC (TNK2): 124 POC | Avg POC (Fgr): 118 POC | Avg POC (Lck): 94.5 POC | Avg POC (Ron): 108.5 POC | Avg POC (CDK1/cyclinB): 97 POC | Avg POC (AURKA): 113.5 POC | Avg POC (MARK1): 107 POC | Avg POC (MELK): 142.5 POC | Avg POC (DDR2): 104.5 POC | Avg POC (TBK1): 110 POC | Avg POC (DAPK3): 106 POC | Avg POC (ROCK-II): 99 POC | Avg POC (CK1gamma2): 120 POC
Structure (SMILES): COCCCc1cc(Cl)c(Cl)cc1NC(=O)Nc1c(C)c(-c2cnn(C)c2)nn1-c1ccccc1 [Example 15, 1-(4,5-dichloro-2-(3-methoxypropyl)phenyl)-3-(1′,4-dimethyl-1-phenyl-1H,1′H-[3,4′-bipyrazol]-5-yl)urea]
